# Laboratory results: US20260216158A1, “OCULAR IMPLANT CONTAINING A TYROSINE KINASE INHIBITOR” (OCULAR THERAPEUTIX, INC., priority 2023, published 2026)
# “And” between values parts separate entries of the source, which are not always exact repeats. Identical values can stand only once.
# Tests used:
# [1] = Stability studies of axitinib co-crystals (Example 4.4); type: physicochemical
# Text: The results are also depicted in Table 8.
# [2] = Solubility of axitinib prodrugs in PBS, 24 h at 22° C., HPLC (Example 6.2); type: physicochemical; conditions: for Mean Solubility / solubility at 24 h: PBS pH 7.2 to 7.4, 24 hours incubation at 22° C.; for solubility at 24 h / Obtained Conc. (replicate): PBS; for solubility at 24 h: 22 °C, pH 7.2, aqueous buffer, thermodynamic from solid; for Obtained Conc. (replicate): 24 h at 22° C., after dilution factor, replicates R1, R2
# Procedure: • PBS, pH 7.2 • 24 h at 22° C. with continuous shaking • Solubility of test item was determined by HPLC analysis with calibration curve
# [3] = as above; type: physicochemical; conditions: pH 7.4, replicates R1, R2
# [4] = PBS pH 7.4, 37° C.
# [5] = Stability of axitinib polymorph IV in an implant throughout 6 months (Example 11); type: physicochemical
# [6] = Solubility of axitinib free base polymorphs (SAB-I, Polymorph IV) in PBS (Example 6.1); conditions: for Solubility in PBS, Day 1 / Solubility in PBS, Day2 / Solubility in PBS, Day 5 / Solubility in PBS, Day 6 / Solubility in PBS, Day 8 / Equilibrium solubility in PBS, Average (Days 5-8): 37° C., pH 7.2 to 7.4; for Solubility in PBS, Day2: day 2; for Equilibrium solubility in PBS, Average (Days 5-8): average of days 5, 6 and 8, UPLC
# Solubility of axitinib = type: physicochemical; conditions: PBS, 37 °C, pH 7.2, aqueous buffer, thermodynamic from solid; read-out: Solubility in PBS pH 7.2-7.4 (37° C., 5 days)
# physchem [7] = conditions: aqueous with cosolvent or surfactant or cyclodextrin
# physchem [8] = conditions: PBS, 37 °C, pH 7.4, aqueous buffer, thermodynamic from solid
# [9] = axitinib: Rugo et al. 2005; ranibizumab, aflibercept: in the human eye; cited from earlier work
# [10] = cited from earlier work
# [11] = NHP study: bioanalysis of axitinib in plasma; type: in vivo, Cynomolgus monkeys; conditions: at sacrifice time points, LLOQ 0.100 ng/mL
# retinal vessel leakage = assay: In vivo VEGF challenge study, leakage by fluorescein angiography; conditions: rabbit VEGF challenge, scale 0 to 4
# Text: The scoring criteria is based on Table 37B.
# [12] = system: VEGF-induced retinal vascular leakage; assay: VEGF challenge study, leakage score over time (Example 14); type: in vivo, Dutch Belted rabbit; conditions: fluorescein angiography, 0 no leakage, 4 no inhibition of leakage
# [13] = listed as Polymorph IV micronized
compound,measurement,setting,value
O=C(O)[C@H](O)[C@@H](O)C(=O)O [(+)-L-Tartaric acid],HPLC Purity after stability studies 25° C./60% RH,[1],96.66
same,HPLC Purity after stability studies 40° C./75% RH,[1],96.24
same,HPLC Purity after stability studies 80° C.,[1],93.24
same,"Stability-3 days slurry in H2O (25° C.) and 4 days drying at 32° C./0% RH, HPLC",[1],97.50
CNC(=O)c1ccccc1Sc1ccc2c(/C=C/c3ccccn3)nn(COC(=O)CCC(=O)O)c2c1 [Axitinib N-Succinoyloxymethyl Prodrug],Mean Solubility,[2],217.44 µg/mL
same,solubility at 24 h,[2],217 µg/mL
same,Obtained Conc. (replicate),[2],222.06 µg/mL and 212.82 µg/mL
"CNC(=O)c1ccccc1Sc1ccc2c(/C=C/c3ccccn3)nn(COC(=O)CCOC)c2c1 [Axitinib N-m(PEG)1-oxymethyl Prodrug, 3-Methoxy-propionic acid 6-(2-methylcarbamoyl-phenylsulfanyl)-3-((E)-2-pyridin-2-yl-vinyl)-indazol-1-ylmethyl ester]",Conc. (replicate),[3],"BLOQ (“BLOQ” means “below limit of quantification”. i.e., <0.781 μg/mL)"
same,Mean Solubility,[2],Not soluble
"CNC(=O)c1ccccc1Sc1ccc2c(/C=C/c3ccccn3)nn(COC(=O)CCOCCOC)c2c1 [Axitinib N-m(PEG)2-oxymethyl Prodrug, 3-(2-Methoxy-ethoxy)-propionic acid 6-(2-methylcarbamoyl-phenylsulfanyl)-3-((E)-2-pyridin-2-yl-vinyl)-indazol-1-ylmethylester]",Conc. (replicate),[3],1112 ng/mL and 1086 ng/mL
same,solubility at 24 h,[2],1.1 µg/mL
"CNC(=O)c1ccccc1Sc1ccc2c(/C=C/c3ccccn3)nn(COC(=O)CCOCCOCCOC)c2c1 [Axitinib N-m(PEG)3-oxymethyl Prodrug, 3-[2-(2-Methoxy-ethoxy)-ethoxy]-propionic acid 6-(2-methylcarbamoyl-phenylsulfanyl)-3-((E)-2-pyridin-2-yl-vinyl)-indazol-1-ylmethyl ester]",Conc. (replicate),[3],6179 ng/mL and 6146 ng/mL
same,solubility at 24 h,[2],6.16 µg/mL
CNC(=O)c1ccccc1Sc1ccc2c(/C=C/c3ccccn3)nn(COC(=O)CCOCCOCCOCCOC)c2c1 [Axitinib N-m(PEG)4-oxymethyl Prodrug],solubility at 24 h,[2],99.4 µg/mL
same,Obtained Conc. (replicate),[2],100.16 µg/mL and 98.58 µg/mL
O=C(O)CCCC(=O)O [Glutaric acid],HPLC Purity after stability studies 25° C./60% RH,[1],90.81
same,HPLC Purity after stability studies 40° C./75% RH,[1],99.31
same,HPLC Purity after stability studies 80° C.,[1],99.44
same,"Stability-3 days slurry in H2O (25° C.) and 4 days drying at 32° C./0% RH, HPLC",[1],99.80
same,"Thermodynamic solubility in PBS, pH 7.4 at 37° C., 2 hours",[4]; 2 hours,LOD
same,"Thermodynamic solubility in PBS, pH 7.4 at 37° C., 4 hours",[4]; 4 hours,LOD
same,"Thermodynamic solubility in PBS, pH 7.4 at 37° C., 24 hours",[4]; 24 hours,LOD
"CNC(=O)c1ccccc1Sc1ccc2c(/C=C/c3ccccn3)n[nH]c2c1 [Polymorph IV, axitinib]",chemical and physical stability in an implant,[5],chemically and physically stable
CNC(=O)c1ccccc1Sc1ccc2c(/C=C/c3ccccn3)n[nH]c2c1 [SAB-I micronized],"Solubility in PBS, Day 1",[6],0.236 µg/mL
same,"Solubility in PBS, Day2",[6],0.265 µg/mL
same,"Solubility in PBS, Day 5",[6],0.216 µg/mL
same,"Solubility in PBS, Day 6",[6],0.226 µg/mL
same,"Solubility in PBS, Day 8",[6],0.237 µg/mL
CNC(=O)c1ccccc1Sc1ccc2c(/C=C/c3ccccn3)n[nH]c2c1 [SAB-I non-micronized],"Solubility in PBS, Day 1",[6],0.153 µg/mL
same,"Solubility in PBS, Day2",[6],0.228 µg/mL
same,"Solubility in PBS, Day 5",[6],0.190 µg/mL
same,"Solubility in PBS, Day 6",[6],0.194 µg/mL
same,"Solubility in PBS, Day 8",[6],0.188 µg/mL
CNC(=O)c1ccccc1Sc1ccc2c(/C=C/c3ccccn3)n[nH]c2c1 [SAB-I super-micronized],"Solubility in PBS, Day 1",[6],0.246 µg/mL
same,"Solubility in PBS, Day2",[6],0.277 µg/mL
same,"Solubility in PBS, Day 5",[6],0.256 µg/mL
same,"Solubility in PBS, Day 6",[6],0.253 µg/mL
same,"Solubility in PBS, Day 8",[6],0.247 µg/mL
"CNC(=O)c1ccccc1Sc1ccc2c(/C=C/c3ccccn3)n[nH]c2c1 [SAB-I, axitinib]",solubility at 5 days,Solubility of axitinib,0.2 µg/mL
CNC(=O)c1ccccc1Sc1ccc2c(/C=C/c3ccccn3)n[nH]c2c1 [axitinib polymorph IV],"Equilibrium solubility in PBS, Average (Days 5-8)",[6],about 0.435 μg/mL
same,"Equilibrium solubility in PBS, Average (Days 5-8)",[6]; [13],0.435 µg/mL
same,"Solubility in PBS, Day 1",[6]; [13],0.678 µg/mL
same,"Solubility in PBS, Day2",[6]; [13],0.479 µg/mL
same,"Solubility in PBS, Day 5",[6]; [13],0.413 µg/mL
same,"Solubility in PBS, Day 6",[6]; [13],0.443 µg/mL
same,"Solubility in PBS, Day 8",[6]; [13],0.449 µg/mL
CNC(=O)c1ccccc1Sc1ccc2c(/C=C/c3ccccn3)n[nH]c2c1 [axitinib polymorph SAB-I],solubility,physchem [7]; solubility in 25%/75% (v/v) ethanol/water,13.4 µg/mL
same,solubility thermodynamic at 5 days,physchem [8],~0.223 µg/mL
same,solubility in PBS,"[6]; PBS pH 7.2 to 7.4, 37° C., after five days of incubation",less than 0.3 μg/mL
"CNC(=O)c1ccccc1Sc1ccc2c(/C=C/c3ccccn3)n[nH]c2c1 [axitinib, N-methyl-2-[3-((E)-2-pyridin-2-yl-vinyl)-1H-indazol-6-ylsulfanyl]-benzamide]",solubility,physchem [7]; mean solubility value in 25%/75% (v/v) ethanol/water,18.3 µg/mL
same,clearance half-life (t1/2),[9],a few hours
same,vitreous half-life,[10],2 h
same,Axitinib concentrations in plasma,[11],No measurable amount of axitinib was detected
"Bevacizumab: Avastin (bevacizumab), comparator in the VEGF challenge study",leakage score (mean),"retinal vessel leakage; after 60 days, untreated eyes 3.2",3.1
same,leakage score (mean),retinal vessel leakage; going further beyond 60 days,3.7
same,leakage score (mean),retinal vessel leakage; up to 31 days,0.0
same,Leakage Scores (average),[12]; Day 7,0.0
same,Leakage Scores (average),[12]; Day 17,0.0
same,Leakage Scores (average),[12]; Day 31,0.0
same,Leakage Scores (average),[12]; Day 45,1.0
same,Leakage Scores (average),[12]; Day 59,3.1
same,Leakage Scores (average),[12]; Day 73,3.7
Citric Acid,HPLC Purity after stability studies 25° C./60% RH,[1],90.78
same,HPLC Purity after stability studies 40° C./75% RH,[1],93.23
same,HPLC Purity after stability studies 80° C.,[1],86.88
same,"Stability-3 days slurry in H2O (25° C.) and 4 days drying at 32° C./0% RH, HPLC",[1],96.24
Fumaric Acid,HPLC Purity after stability studies 25° C./60% RH,[1],99.60
same,HPLC Purity after stability studies 40° C./75% RH,[1],99.64
same,HPLC Purity after stability studies 80° C.,[1],99.47
same,"Stability-3 days slurry in H2O (25° C.) and 4 days drying at 32° C./0% RH, HPLC",[1],99.76
"aflibercept: anti-VEGF agent, aflibercept intravitreal injection by Regeneron",clearance half-life (t1/2),[9],several days
"ranibizumab: anti-VEGF agent, ranibizumab injection by Genentech",clearance half-life (t1/2),[9],several days
